The values below come from PMC8175309, “Translational CNS Steady-State Drug Disposition Model in Rats, Monkeys, and Humans for Quantitative Prediction of Brain-to-Plasma and Cerebrospinal Fluid-to-Plasma Unbound Concentration Ratios” (The AAPS Journal, 2021).

Read-outs that look alike come from different tables or passages of the source.

The conditions of series [1]: cited from earlier work; for Kp,uu,brain Human: *3 ref Summerfield et al. (25).
Another series deals with T1, BCRP (Homo sapiens, UniProt Q9UNQ0).
T1 sequence (Q9UNQ0 1-655): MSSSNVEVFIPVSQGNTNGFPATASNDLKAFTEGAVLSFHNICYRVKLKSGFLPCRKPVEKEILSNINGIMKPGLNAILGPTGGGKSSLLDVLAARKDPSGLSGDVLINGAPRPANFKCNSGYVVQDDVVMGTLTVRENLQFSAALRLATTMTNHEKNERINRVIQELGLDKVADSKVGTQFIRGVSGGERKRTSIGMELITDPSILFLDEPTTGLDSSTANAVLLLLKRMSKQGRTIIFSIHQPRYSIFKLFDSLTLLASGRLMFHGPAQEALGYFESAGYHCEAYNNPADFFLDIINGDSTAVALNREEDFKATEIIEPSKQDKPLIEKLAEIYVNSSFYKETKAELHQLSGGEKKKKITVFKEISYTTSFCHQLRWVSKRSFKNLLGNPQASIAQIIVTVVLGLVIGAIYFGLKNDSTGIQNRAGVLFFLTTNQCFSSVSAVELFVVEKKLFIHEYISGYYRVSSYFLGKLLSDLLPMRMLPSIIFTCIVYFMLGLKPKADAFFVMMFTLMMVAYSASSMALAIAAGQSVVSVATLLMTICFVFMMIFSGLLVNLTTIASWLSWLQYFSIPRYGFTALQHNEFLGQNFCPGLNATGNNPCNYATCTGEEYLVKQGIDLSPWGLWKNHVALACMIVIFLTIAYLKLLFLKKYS
The experiment in a line: Transcellular transport across MDCK-BCRP cell monolayers (efflux ratio). As to conditions: dog, pH 7.4. How it is done:
(§1) To the compounds available internally, in vitro efflux ratios for MDR1 and BCRP were determined by the following procedure (Supplemental Table 2). Test compound stock solutions in dimethyl sulfoxide (DMSO) were diluted in transport buffer (Hanks’ balanced salt solution (HBSS) with 10 mM HEPES, pH 7.4) to a concentration of 1 μM (DMSO < 1%) and applied to the apical or basolateral side of a cell monolayer derived from Madin-Darby canine kidney (MDCK)-MDR1 and MDCK-BCRP cells. Permeation of the test compounds from apical to basolateral (A to B) direction or B to A direction was measured in duplicate. The plate was incubated for 1 h in a CO2 incubator at 37±1°C with 5% CO2 at saturated humidity without shaking. In addition, the efflux ratio of each compound was also determined. Test and reference compounds were quantified by LC-MS/MS analysis based on the peak area ratio of analyte/internal standard.
(§2) The apparent permeability coefficient Papp (cm/s) was calculated by using Eq. 1: 1 Papp=dCr/dt×Vr/A×C0 where dCr/dt is the cumulative concentration of the compound in the receiver chamber as a function of time (μM/s); Vr is the volume of the solution in the receiver chamber (0.075 mL on the apical side, 0.25 mL on the basolateral side); A is the surface area for transport, i.e., 0.0804 cm^2 for the area of the monolayer; and C0 is the initial concentration (μM) in the donor chamber.
(§3) The efflux ratio was calculated using Eq. 2: 2 Efflux ratio=Papp,BtoA/Papp,AtoB

For series [2] the following is noted: cited from earlier work.
A further series concerns the target MDR1 (Homo sapiens, UniProt P08183). The experiment in a line: in vitro. As to conditions: dog, MDCK-MDR1, pH 7.4. As to the method: as §1, §2, §3
Series [3] is described as follows: in vivo. Particulars: for Kp uu at 6 h: cynomolgus monkey, in vivo; for Kp,uu,CSF Monkey: lumbar CSF; for Kp,uu,CSF Monkey / Kp,uu,brain Monkey: *1 data internally obtained. How it is done: Monkey experiments were conducted internally or at the Drug Safety Research Laboratories in Shin Nippon Biomedical Laboratories via consignment to Axcelead Drug Discovery Partners. […] Detailed dosage regimen for each compound is summarized in Supplemental Table 3. […] Each cassette was assigned to a separate group of monkeys. The vehicle was saline or a mixture of dimethylacetamide and 1,3-butanediol (1:1, v/v). At the end of the 6-h infusion or 1 h after intravenous bolus administration, the monkeys were anesthetized, and whole blood, CSF, and whole brain were collected. Blood was collected using the anticoagulant, heparin sodium, and immediately centrifuged; the plasma was transferred to polypropylene tubes. Then, ketamine hydrochloride (50 mg/mL; 0.2 mL/kg; 10 mg/kg) was intramuscularly administered. CSF was collected after lumbar puncture using a spinal needle (22–25G) and a syringe pre-wetted with 10% CHAPS solution to prevent adsorption of compounds to all the equipment during pretreatment. CSF samples were immediately centrifuged, and the supernatant layers were transferred to polypropylene tubes. […] After collecting the cerebellum, hippocampus, and cerebral cortex from the whole brain, these were washed with cold saline, weighed, and homogenized immediately in 4 volumes of ice-cold 100 mmol/L sodium phosphate buffer. All samples were stored at –80°C until analysis by LC-MS/MS. Each sample (50 μL) was mixed with the working solution (the mixture of dimethyl sulfoxide and acetonitrile (2:8, v/v)), and protein was precipitated by the addition of 150 μL acetonitrile containing the internal standards (5 ng/mL alprenolol and diclofenac). After centrifugation at 5,250 rpm and 4°C for 5 min, the supernatant (150 μL) was transferred to a polypropylene 96-well plate (Corning; Corning, NY, USA) and completely evaporated under a gentle stream of N2. The residue was reconstituted in dilution solution (mobile phase A/B (7:3, v/v)), and the supernatant was analyzed by LC-MS/MS.
Each sample (50 μL) was mixed with the working solution (the mixture of dimethyl sulfoxide and acetonitrile (2:8, v/v)), and the protein was precipitated by adding 150 μL acetonitrile containing internal standards (5 ng/mL alprenolol and diclofenac). After centrifugation at 5250 rpm and 4°C for 5 min, the supernatant (150 μL) was transferred to a polypropylene 96-well plate (Corning) and completely evaporated under a gentle stream of N2. The residue was reconstituted in mobile phase A/B (7:3, v/v)), and the supernatant was analyzed by LC-MS/MS. API5000 and QTRAP5500 (AB SCIEX, Framingham, MA, USA) equipped with Ultra-Fast Liquid Chromatography (Shimadzu, Kyoto, Japan) were used for determination of drug concentrations. Reversed-phase chromatography was performed using Shim-pack XR ODS (2.2 μm, 2.0×30 mm). Mobile phase A consisted of 10 mM ammonium formate with 0.2% formic acid, and mobile phase B contained acetonitrile with 0.2% formic acid. […] The mass spectrometer was operated in the positive ionization mode with multiple reaction monitoring (MRM). The MRM parameters (Q1 ion, Q3 ion, DP, EP, CE, and CXP) for monitoring the compounds are shown in Supplemental Table 4. Data acquisition and processing were performed using Analyst 1.6.2 (AB SCIEX, Framingham, MA, USA).
(§4) To perform correlation analyses between the observed Kp,uu,brain and Kp,uu,CSF, and the model-based prediction of Kp,uu,brain and Kp,uu,CSF, data from literature information were integrated into the internally obtained data for these assessments (Supplemental Table 2) ([17],[22]–[24],[27]–[33]). When only the total concentrations in plasma, CSF, and brain were available, the total concentration ratio in plasma to CSF or brain (Kp,CSF or Kp,brain, respectively) was estimated, followed by calculation of Kp,uu,CSF or Kp,uu,brain based on Eqs.

The conditions of series [4]: monkey; *9 ref Nagaya et al. (19); cited from earlier work.
A short description of series [5]: in vivo. As to conditions: for Kp uu: rat. How it is done: The CSF samples collected from cisterna magna in rats were stored at –80°C until analysis by liquid chromatography-tandem mass spectrometry (LC-MS/MS). Before performing the LC-MS/MS analysis, these samples were thawed on ice and mixed with three volumes of acetonitrile. The acetonitrile mixtures were vortexed and centrifuged, and the supernatant was collected. After dilution with mobile phase A (a mixture of 10 mM ammonium formate and formic acid at 100:0.2 (v/v)), the supernatant was injected into the LC-MS/MS system.
as §4

Chain of MDR1 (P08183 whole entry, the tested form may be a part): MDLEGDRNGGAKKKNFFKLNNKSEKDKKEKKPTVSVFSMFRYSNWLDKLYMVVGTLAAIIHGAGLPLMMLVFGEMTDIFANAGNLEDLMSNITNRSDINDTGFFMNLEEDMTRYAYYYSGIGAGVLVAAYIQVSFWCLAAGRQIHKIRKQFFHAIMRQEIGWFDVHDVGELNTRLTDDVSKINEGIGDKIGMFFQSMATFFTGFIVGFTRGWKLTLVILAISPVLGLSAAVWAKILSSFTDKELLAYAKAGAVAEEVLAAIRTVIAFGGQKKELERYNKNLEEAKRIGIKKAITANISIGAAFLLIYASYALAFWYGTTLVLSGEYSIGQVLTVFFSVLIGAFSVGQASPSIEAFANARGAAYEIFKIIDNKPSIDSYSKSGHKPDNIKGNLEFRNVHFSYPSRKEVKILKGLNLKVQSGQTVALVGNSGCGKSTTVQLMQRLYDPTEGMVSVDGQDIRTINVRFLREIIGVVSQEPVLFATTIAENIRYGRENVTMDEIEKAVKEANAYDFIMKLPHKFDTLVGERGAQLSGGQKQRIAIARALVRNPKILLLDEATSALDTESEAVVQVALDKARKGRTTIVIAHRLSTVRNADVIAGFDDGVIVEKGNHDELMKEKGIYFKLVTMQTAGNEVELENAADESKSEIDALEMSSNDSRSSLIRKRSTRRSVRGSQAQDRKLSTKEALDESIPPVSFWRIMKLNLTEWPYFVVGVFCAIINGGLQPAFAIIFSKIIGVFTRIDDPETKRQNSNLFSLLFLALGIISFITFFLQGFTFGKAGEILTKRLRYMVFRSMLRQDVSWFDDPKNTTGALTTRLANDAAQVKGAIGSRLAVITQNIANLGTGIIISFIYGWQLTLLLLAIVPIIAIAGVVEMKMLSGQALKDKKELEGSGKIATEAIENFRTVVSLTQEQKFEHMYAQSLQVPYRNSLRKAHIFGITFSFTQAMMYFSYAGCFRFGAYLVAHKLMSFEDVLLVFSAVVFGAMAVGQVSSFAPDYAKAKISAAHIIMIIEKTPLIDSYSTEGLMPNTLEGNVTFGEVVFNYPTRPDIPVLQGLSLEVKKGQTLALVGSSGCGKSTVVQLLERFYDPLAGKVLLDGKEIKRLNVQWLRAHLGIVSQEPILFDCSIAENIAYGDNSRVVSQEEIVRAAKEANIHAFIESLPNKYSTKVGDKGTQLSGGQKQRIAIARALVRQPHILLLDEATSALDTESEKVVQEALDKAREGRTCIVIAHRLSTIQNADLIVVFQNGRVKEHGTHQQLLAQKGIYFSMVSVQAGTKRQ

Turning to `COc1ccc(C(CN(C)C)C2(O)CCCCC2)cc1` (centres unmarked) [Venlafaxine], the “Kp,uu,brain Human” value in series [1] was 0.86. Also, the efflux ratio at 1 h, 1 μM on BCRP came to 0.7; on MDR1, 7.6. Besides, the “Kp,uu,brain Rat” value in series [2] (*3 ref Summerfield et al. (25)) is 1.074.
On to `CN(Cc1cnc2nc(N)nc(N)c2n1)c1ccc(C(=O)N[C@@H](CCC(=O)O)C(=O)O)cc1` [Methotrexate], for which, in series [1] (*4 ref Friden et al. (21)), the “Kp,uu,CSF Human” value is 0.062. Besides, the values for the efflux ratio at 1 h, 1 μM at BCRP and at MDR1 were 1.2 and 1.4, respectively. In addition, the “Kp,uu,CSF Rat” value in series [2] (*4 ref Friden et al. (21)) is recorded as 0.007.
Regarding `COc1cc2nc(N3CCN(C(=O)c4ccco4)CC3)nc(N)c2cc1OC` [Prazosin], the efflux ratio at 1 h, 1 μM on BCRP came out at 18; at MDR1, 52. The Kp uu at 6 h in the series “in vivo [3]” (Kp,uu,CSF Monkey) came to 0.289; in the series “in vivo [3]” (Kp,uu,brain Monkey), 0.253.
Take `CC(C)NCC(O)COc1cccc2ccccc12` (centres unmarked) [Propranolol]: in series [1] (*4 ref Friden et al. (21)), the “Kp,uu,CSF Human” value is reported as 0.42. Besides, on BCRP, the efflux ratio at 1 h, 1 μM came out at 1. Further, the “Kp,uu,CSF Rat” value in series [2] (*4 ref Friden et al. (21)) is given as 0.49. In series [4], the “Kp,uu,CSF Monkey” value is listed as 0.461 and the “Kp,uu,brain Monkey” value is reported as 0.947.
In the case of `O=c1c(-c2ccc(O)cc2)coc2cc(O)cc(O)c12` [Genistein], in “in vivo [3]”, the “Kp,uu,CSF Monkey” value came to 0.0369 and the “Kp,uu,brain Monkey” value was determined as 0.0128. In addition, in series [2] (*7 ref Kodaira et al. (20)), the “Kp,uu,CSF Rat” value is given as 0.589 and the “Kp,uu,brain Rat” value is given as 0.181. Besides, in the series “in vivo [5]” (*1 data internally obtained), the “Kp,uu,CSF Rat” value stood at 1.29 and the “Kp,uu,brain Rat” value stood at 0.0238.
On to `CC1(C)O[C@@H]2[C@@H](CO[C@@]3(COS(N)(=O)=O)OC(C)(C)O[C@@H]23)O1` [Topiramate], for which the “Kp,uu,CSF Human” value in series [1] (*4 ref Friden et al. (21)) was 1. The efflux ratio at 1 h, 1 μM at BCRP worked out at 0.7. In series [2] (*4 ref Friden et al. (21)), the “Kp,uu,CSF Rat” value is 0.63 and the “Kp,uu,brain Rat” value is recorded as 0.330. Also, the efflux ratio at 1 h, 1 μM at MDR1 was 25.
Regarding `Nc1ccc(S(=O)(=O)c2ccc(N)cc2)cc1` [Dapsone], the “Kp,uu,CSF Human” value in series [1] (*11 ref Togashi et al. (29)) was 1.56. Moreover, the efflux ratio at 1 h, 1 μM on BCRP is 0.8; on MDR1 it was 1.3. In addition, the values for the Kp uu at 6 h in the series “in vivo [3]” (Kp,uu,CSF Monkey) and in the series “in vivo [3]” (Kp,uu,brain Monkey) were 0.661 and 1.02, respectively.
In the case of `COc1cc([C@@H]2c3cc4c(cc3[C@@H](O[C@@H]3O[C@@H]5CO[C@@H](C)O[C@H]5[C@H](O)[C@H]3O)[C@H]3COC(=O)[C@H]23)OCO4)cc(OC)c1O` [Etoposide], the efflux ratio at 1 h, 1 μM on BCRP amounted to 3.7; at MDR1 it was 6.1.
Regarding `C#Cc1cccc(Nc2ncnc3cc(OCCOC)c(OCCOC)cc23)c1` [Erlotinib], the “Kp,uu,CSF Human” value in series [1] (*2 ref Post et al. (24)) is on record as 0.428. The efflux ratio at 1 h, 1 μM at BCRP came to 5.8; on MDR1 it was 19.8. For the same compound, the Kp uu was determined as 0.409 in the series “in vivo [5]” (in vivo, Kp,uu,CSF Rat) and 0.061 in the series “in vivo [5]” (in vivo, Kp,uu,brain Rat).
Regarding `CNC(=O)c1cc(Oc2ccc(NC(=O)Nc3ccc(Cl)c(C(F)(F)F)c3)cc2)ccn1` [Sorafenib], in the series “in vivo [3]”, the “Kp,uu,CSF Monkey” value was 0.0798 and the “Kp,uu,brain Monkey” value is recorded as 0.0199. Besides, in “in vivo [5]” (in vivo), the “Kp,uu,CSF Rat” value was 2.06 and the “Kp,uu,brain Rat” value worked out at 0.0228.
With `Nc1c2c(nc3ccccc13)CCCC2` [Tacrine], the “Kp,uu,CSF Human” value in series [1] (in vivo) is on record as 0.74. Further, the results for the efflux ratio at 1 h, 1 μM on BCRP and on MDR1 were 1.1 and 1, respectively. In series [2] (in vivo), the “Kp,uu,CSF Rat” value was 0.67.
`CC(C)NCC(O)COc1cccc2[nH]ccc12` (centres unmarked) [Pindolol]: the “Kp,uu,CSF Human” value in series [1] (*4 ref Friden et al. (21)) was 0.52. Further, the efflux ratio at 1 h, 1 μM was determined as 1.2 on BCRP and 5.7 at MDR1. In addition, in series [2] (*4 ref Friden et al. (21)), the “Kp,uu,CSF Rat” value is on record as 0.11. In series [2] (*4 ref Friden et al. (21)), the “Kp,uu,brain Rat” value was 0.500.
For `COc1ccc2c(c1)c(CC(=O)O)c(C)n2C(=O)c1ccc(Cl)cc1` [Indomethacin], in series [1] (*4 ref Friden et al. (21)), the “Kp,uu,CSF Human” value is 0.27. Besides, the efflux ratio at 1 h, 1 μM at BCRP turned out to be 12; on MDR1, 3.2. In addition, in series [2] (*4 ref Friden et al. (21)), the “Kp,uu,CSF Rat” value is 0.17.
In the case of `CN[C@H]1CC[C@@H](c2ccc(Cl)c(Cl)c2)c2ccccc21` [Sertraline], the results for the efflux ratio at 1 h, 1 μM on BCRP and at MDR1 were 1.2 and 0.5, respectively.
For `Nc1nnc(-c2cccc(Cl)c2Cl)c(N)n1` [Lamotrigine], the “Kp,uu,brain Human” value in series [1] was 2.80. Also, the “Kp,uu,CSF Human” value in series [1] (*4 ref Friden et al. (21)) is on record as 1.1. Besides, the “Kp,uu,brain Rat” value in series [2] (*3 ref Summerfield et al. (25)) is listed as 1.40. Further, the “Kp,uu,CSF Rat” value in series [2] (*4 ref Friden et al. (21)) is reported as 0.86. For the same compound, in series [4], the “Kp,uu,CSF Monkey” value is given as 0.875 and the “Kp,uu,brain Monkey” value is recorded as 0.678.
